Series [1] concerns SMN2-linked luciferase-reporter gene construct. The series is described as follows: SMN splice reporter assay (SMN2-linked luciferase reporter, Example 10). The format is cell-based. The settings on record: for maximal fold induction: read-out: SMN Splice Reporter Assay (Example 10) Avg MaxFold Increase. In short, it runs like this:
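Cervical carcinoma cells stably carrying an SMN2–luciferase splice reporter, in which luciferase is in frame only when SMN2 exon 7 is included, were treated with compound. Luciferase activity was read and expressed as fold increase over untreated transformed cells.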
On the technique in general: A reporter such as luciferase makes a cellular process visible.

The nature of series [2]: Plasma and brain pharmacokinetics in mice. The format is in vivo, FVB or CD-1 mice. The settings on record: single dose; for half-life / Kp / AUC: mouse; for Kp: brain and plasma, read-out: Brain/Plasma Ratio. As to the method: Compounds were formulated in solution using the method of cosolvency as described by Lee et al., Int. J. Pharmaceutics, 253: 111-119 (2003). FVB or CD-1 mice, approximately 5 weeks old, were given a single dose of compound at the indicated concentration. Compounds were administered orally, with the exception of ALB-116638 and ALB-117573, which were administered IV. Three to five mice were euthanized at various times between 15 minutes and 24 hours after dosing and brain and plasma were harvested. Tissues were homogenized in acetonitrile and analyzed on an API 4000 LC/MS/MS system coupled with an Agilent 1100 series liquid chromatograph. All pharmacokinetic analyses were conducted using WinNonlin (Version 4.01; Pharsight, Palo Alto, Calif.) with the exception of brain/plasma ratios, which were calculated using Microsoft Excel 2000. AUC values are the area under the concentration-time curve from time zero to the last measured time point. The half life values are extrapolated from 3-4 time points taken at less than 4 hours after dosing.

In series [3] the test system is luciferase reporter containing the UAG stop codon. Briefly: Translational read-through luciferase reporter assay, UAG stop codon. The format is cell-based. Conditions: read-out: MaxFold Increase. The text has this: This assay is described in detail in WO 01/44516 A2. This is a cell-based luciferase reporter assay designed to detect translational read-through via insertion of a translational stop codon within the luciferase coding sequence. In the presence of compounds that promote read-through of translational stop codons, active luciferase is produced and detected via chemiluminescence. We have shown that indoprofen analogs are active in two versions of this assay—one containing a UGA stop codon and one containing a UAG stop codon. The data in the table is from the luciferase reporter containing the UAG stop codon. This is the first stop codon downstream of the improper splice junction between exons 6 and 8 in the human SMN2 transcript.

Series [4] has as its system human GLT-1/EAAT-2 promoter. The series is described as follows: GLT-1/EAAT-2 promoter luciferase reporter assay in COS-7 cells. Type of series: cell-based. The settings on record: COS-7 pE2P-GL3 (clone 4), 48 h; for maximal fold induction: Homo sapiens, normalized to DMSO control, read-out: Max Fold-Induction. Here is the method: The astroglial glutamate transporter, GLT-1/EAAT-2, is responsible for the majority of glutamate transport in the brain and spinal cord. […] Results from each plate were normalized to the DMSO treated control wells and expressed as fold-induction. EC50 values were calculated using GraphPad Prism software.

Where [5] appears, read: SMN2-linked luciferase reporter, average.
[6] abbreviates: SMN2-linked luciferase reporter, average maximum fold increase.
Where [7] appears, read: brain, 5 mg/kg, IV, read-out: Brain T½ (converted).
[8] abbreviates: maximum fold increase of reporter signal, average.
[9] abbreviates: brain, 5 mg/kg, oral, read-out: Brain T½ (converted).
The mark [10] stands for this setting: plasma, 5 mg/kg, oral, read-out: Plasma T½ (converted).

Like-named read-outs stand apart in the source and are kept apart here.

One may read the EC50 as the concentration that produces a half-maximal response. The low end stands for greater potency, the high end for weaker potency. Consider `CC(C)c1ccc(N2Cc3ccc(NC(N)=O)cc3C2=O)cc1` [ALB-117573], for which the EC50 in series [1] (setting [5]) was 345 nM. The maximal fold induction in series [1] (setting [6]) is 1.67; in series [3], 4.4. Further, the “Brain AUC” value in series [2] (5 mg/kg, IV) was found to be 64.5 ng·h/g. The half-life in series [2] (setting [7]) is 7.4 h.

`CN(C)Cc1ccc(N2Cc3ccccc3C2=O)cc1` [ALB-116255] showed a half-maximal effective concentration (EC50) in series [1] (setting [5]) of 50 nM. The maximal fold induction in series [1] (setting [8]) came out at 1.09; in series [4] it was 1.2.

As usually defined, the AUC is the area under the concentration-time curve, a measure of exposure. A low value points to less exposure. As for `Br.COCC(C)c1ccc(N2Cc3ccc(C)cc3C2=O)cc1` (stereo not drawn) [ALB-113967], in series [1] (setting [5]), the EC50 was determined as 159 nM. For the same compound, the results for the maximal fold induction in series [1] (setting [8]) and in series [3] were 1.54 and 2.6, respectively. Moreover, the “Brain AUC” value in series [2] (5 mg/kg, oral) is 170.5 ng·h/g. Besides, in series [2] (5 mg/kg, oral), the Kp is 0.29. Moreover, the half-life in series [2] (setting [9]) is 1.1 h; in series [2] (setting [10]), 1.5 h. Moreover, the AUC in series [2] (plasma, 5 mg/kg, oral) came to 595 ng·h/mL.

Compound `COCc1ccc2c(c1)C(=O)N(c1ccc(C(C)C)cc1)C2` [ALB-116935] returned an EC50 in series [1] (setting [5]) of 78 nM. The maximal fold induction in series [1] (setting [8]) is 1.52; in series [3], 1.9. Moreover, the “Brain AUC” value in series [2] (5 mg/kg, oral) was 338.1 ng·h/g. Also, in series [2] (setting [9]), the half-life is 9.4 h.

In the case of `CC(C)c1ccc(N2Cc3ccc(NS(C)(=O)=O)cc3C2=O)cc1` [ALB-116486], the concentration for a half-maximal effect (EC50) in series [1] (setting [5]) was 757 nM. The maximal fold induction in series [1] (setting [6]) was 1.49; in series [4], 1.17; in series [3], 2.4.

Take `COCC(C)c1ccc(N2Cc3cc4c(cc3C2=O)OCCO4)cc1` (stereo not drawn) [ALB-116361]: the concentration for a half-maximal effect (EC50) is 3560 nM in series [1] (setting [5]) and 6.79 nM in series [4]. The maximal fold induction in series [1] (setting [8]) was 1.9; in series [4] it was 1.54.

`CC(C(N)=O)c1ccc(N2Cc3ccccc3C2=O)cc1` (stereo not drawn) [ALB-112171]: the half-maximal effective concentration (EC50) in series [1] (setting [5]) turned out to be 6720 nM; in series [4], 460 nM. Besides, the maximal fold induction in series [1] (setting [8]) was 1.34; in series [4] it was 1.9; in series [3], 2.2.

`COc1ccc2c(c1)C(=O)N(c1ccc(C(C)(C)C)cc1)C2` [ALB-115210] showed a 50% effective concentration (EC50) in series [1] (setting [5]) of 324 nM. Also, the values for the maximal fold induction in series [1] (setting [8]) and in series [3] were 1.47 and 2.9, respectively. Moreover, the “Brain AUC” value in series [2] (5 mg/kg, oral) turned out to be 553.8 ng·h/g; in series [2] (25 mg/kg, oral), 5950.9 ng·h/g. The Kp in series [2] (5 mg/kg, oral) came to 51.7; in series [2] (25 mg/kg, oral), 15. Also, the half-life in series [2] (setting [9]) was 0.6 h; in series [2] (brain, 25 mg/kg, oral, read-out: Brain T½ (converted)) it was 2.9 h; in series [2] (setting [10]), 9.4 h; in series [2] (plasma, 25 mg/kg, oral, read-out: Plasma T½ (converted)) it was 1.1 h. For the same compound, the area under the curve (AUC) in series [2] (plasma, 5 mg/kg, oral) was 10.7 ng·h/mL; in series [2] (plasma, 25 mg/kg, oral), 397 ng·h/mL.

Turning to `COc1ccc2c(c1)C(=O)N(c1ccc(C(C)C(=O)OC(C)(C)C)cc1)C2` (stereo not drawn) [ALB-112354], the EC50 was found to be 801 nM in series [1] (setting [5]) and 221 nM in series [4]. The maximal fold induction in series [1] (setting [8]) came to 1.46; in series [4] it was 1.93; in series [3] it was 2.

For the compound `CC(CN(C)C)c1ccc(N2Cc3ccccc3C2=O)cc1` (stereo not drawn) [ALB-113968], the values for the EC50 in series [1] (setting [5]) and in series [4] were 6030 nM and 1270 nM, respectively. The maximal fold induction in series [1] (setting [8]) amounted to 1.37; in series [4], 1.78.

Consider `CC(C)c1ccc(N2Cc3ccc(N(C)S(C)(=O)=O)cc3C2=O)cc1` [ALB-116638], for which a half-maximal response in series [1] (setting [5]) (EC50) required 166 nM. Besides, the maximal fold induction in series [1] (setting [6]) was 1.51. The “Brain AUC” value in series [2] (5 mg/kg, IV) was found to be 537.2 ng·h/g. Further, in series [2] (setting [7]), the half-life was 7.3 h.

The values above are taken from US8110681B2, “Compounds for the treatment of spinal muscular atrophy and other uses” (The United States of America as represented by the …, priority 2006, dated 2012).
